{"source": "PubChem BioAssay (NCI)", "assay_in_all_cases": "NCI anticancer screen, dose series, 48 h", "key": {"RPMI-8226 leukemia": {"system": "RPMI-8226 leukemia"}, "MDA-MB-231 breast": {"system": "MDA-MB-231 breast"}, "SF-295 CNS": {"system": "SF-295 CNS"}, "K-562 leukemia": {"system": "K-562 leukemia"}, "UACC-257 melanoma": {"system": "UACC-257 melanoma"}, "SN12C renal": {"system": "SN12C renal"}, "ACHN renal": {"system": "ACHN renal"}, "UO-31 renal": {"system": "UO-31 renal"}, "OVCAR-8 ovarian": {"system": "OVCAR-8 ovarian"}, "OVCAR-5 ovarian": {"system": "OVCAR-5 ovarian"}, "MDA-MB-435": {"system": "MDA-MB-435"}, "M14 melanoma": {"system": "M14 melanoma"}, "NCI-H23 lung": {"system": "NCI-H23 lung"}, "HOP-62 NSCLC": {"system": "HOP-62 NSCLC"}, "PC-3 prostate": {"system": "PC-3 prostate"}, "MOLT-4 leukemia": {"system": "MOLT-4 leukemia"}, "UACC-62 melanoma": {"system": "UACC-62 melanoma"}, "LOX IMVI melanoma": {"system": "LOX IMVI melanoma"}, "BT-549 breast": {"system": "BT-549 breast"}, "SF-268 CNS": {"system": "SF-268 CNS"}, "NCI-H226 lung": {"system": "NCI-H226 lung"}, "HCT-116 colon": {"system": "HCT-116 colon"}, "OVCAR-4 ovarian": {"system": "OVCAR-4 ovarian"}, "HT29 colon": {"system": "HT29 colon"}, "IGROV1 ovarian": {"system": "IGROV1 ovarian"}, "MDA-MB-468 breast": {"system": "MDA-MB-468 breast"}, "HCC-2998 colon": {"system": "HCC-2998 colon"}}, "note": "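Exposure lasted 48 hours, with cells grown in 96-well plates and compounds tested at five concentrations. GI50: concentration for 50% inhibition of growth. TGI is the concentration that stops growth completely.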", "data": [{"smiles": "Nc1cc(-c2c[nH]c3ccc(Cl)cc23)nc2cc(-c3c[nH]c4ccccc34)nn12", "values": [{"measurement": "GI50", "setting": "RPMI-8226 leukemia", "value": 2.29, "unit": "µM"}, {"measurement": "TGI", "setting": "RPMI-8226 leukemia", "value": 6.98, "unit": "µM"}, {"measurement": "GI50", "setting": "MDA-MB-231 breast", "value": 1.96, "unit": "µM"}, {"measurement": "TGI", "setting": "MDA-MB-231 breast", "value": 3.6, "unit": "µM"}, {"measurement": "GI50", "setting": "SF-295 CNS", "value": 1.81, "unit": "µM"}, {"measurement": "TGI", "setting": "SF-295 CNS", "value": 3.61, "unit": "µM"}, {"measurement": "GI50", "setting": "K-562 leukemia", "value": 2.15, "unit": "µM"}, {"measurement": "TGI", "setting": "K-562 leukemia", "value": 5.7, "unit": "µM"}, {"measurement": "GI50", "setting": "UACC-257 melanoma", "value": 2.99, "unit": "µM"}, {"measurement": "TGI", "setting": "UACC-257 melanoma", "value": 12.2, "unit": "µM"}, {"measurement": "GI50", "setting": "SN12C renal", "value": 3.63, "unit": "µM"}, {"measurement": "TGI", "setting": "SN12C renal", "value": 14.3, "unit": "µM"}, {"measurement": "GI50", "setting": "ACHN renal", "value": 2.76, "unit": "µM"}, {"measurement": "TGI", "setting": "ACHN renal", "value": 7.77, "unit": "µM"}, {"measurement": "GI50", "setting": "UO-31 renal", "value": 2.59, "unit": "µM"}, {"measurement": "TGI", "setting": "UO-31 renal", "value": 10.4, "unit": "µM"}, {"measurement": "GI50", "setting": "OVCAR-8 ovarian", "value": 3.19, "unit": "µM"}, {"measurement": "TGI", "setting": "OVCAR-8 ovarian", "value": 17.3, "unit": "µM"}, {"measurement": "GI50", "setting": "OVCAR-5 ovarian", "value": 1.9, "unit": "µM"}, {"measurement": "TGI", "setting": "OVCAR-5 ovarian", "value": 4.32, "unit": "µM"}, {"measurement": "GI50", "setting": "MDA-MB-435", "value": 2.42, "unit": "µM"}, {"measurement": "TGI", "setting": "MDA-MB-435", "value": 7.27, "unit": "µM"}, {"measurement": "GI50", "setting": "M14 melanoma", "value": 1.85, "unit": "µM"}, {"measurement": "TGI", "setting": "M14 melanoma", "value": 4.17, "unit": "µM"}, {"measurement": "GI50", "setting": "NCI-H23 lung", "value": 2.23, "unit": "µM"}, {"measurement": "TGI", "setting": "NCI-H23 lung", "value": 5.5, "unit": "µM"}, {"measurement": "GI50", "setting": "HOP-62 NSCLC", "value": 3.1, "unit": "µM"}, {"measurement": "TGI", "setting": "HOP-62 NSCLC", "value": 10.7, "unit": "µM"}, {"measurement": "GI50", "setting": "PC-3 prostate", "value": 2.59, "unit": "µM"}, {"measurement": "TGI", "setting": "PC-3 prostate", "value": 7.89, "unit": "µM"}, {"measurement": "GI50", "setting": "MOLT-4 leukemia", "value": 1.86, "unit": "µM"}, {"measurement": "TGI", "setting": "MOLT-4 leukemia", "value": 5.04, "unit": "µM"}, {"measurement": "GI50", "setting": "UACC-62 melanoma", "value": 1.72, "unit": "µM"}, {"measurement": "TGI", "setting": "UACC-62 melanoma", "value": 3.55, "unit": "µM"}, {"measurement": "GI50", "setting": "LOX IMVI melanoma", "value": 1.75, "unit": "µM"}, {"measurement": "TGI", "setting": "LOX IMVI melanoma", "value": 3.22, "unit": "µM"}, {"measurement": "GI50", "setting": "BT-549 breast", "value": 4.98, "unit": "µM"}, {"measurement": "TGI", "setting": "BT-549 breast", "value": 17.9, "unit": "µM"}, {"measurement": "GI50", "setting": "SF-268 CNS", "value": 2.75, "unit": "µM"}, {"measurement": "TGI", "setting": "SF-268 CNS", "value": 12.7, "unit": "µM"}, {"measurement": "GI50", "setting": "NCI-H226 lung", "value": 3.52, "unit": "µM"}, {"measurement": "TGI", "setting": "NCI-H226 lung", "value": 28, "unit": "µM"}, {"measurement": "GI50", "setting": "HCT-116 colon", "value": 1.67, "unit": "µM"}, {"measurement": "TGI", "setting": "HCT-116 colon", "value": 3.12, "unit": "µM"}, {"measurement": "GI50", "setting": "OVCAR-4 ovarian", "value": 3.65, "unit": "µM"}, {"measurement": "TGI", "setting": "OVCAR-4 ovarian", "value": 17.1, "unit": "µM"}, {"measurement": "GI50", "setting": "HT29 colon", "value": 2.04, "unit": "µM"}, {"measurement": "TGI", "setting": "HT29 colon", "value": 4.62, "unit": "µM"}, {"measurement": "GI50", "setting": "IGROV1 ovarian", "value": 3.34, "unit": "µM"}, {"measurement": "TGI", "setting": "IGROV1 ovarian", "value": 12.7, "unit": "µM"}, {"measurement": "GI50", "setting": "MDA-MB-468 breast", "value": 1.45, "unit": "µM"}, {"measurement": "TGI", "setting": "MDA-MB-468 breast", "value": 3.2, "unit": "µM"}, {"measurement": "GI50", "setting": "HCC-2998 colon", "value": 1.86, "unit": "µM"}, {"measurement": "TGI", "setting": "HCC-2998 colon", "value": 3.6, "unit": "µM"}]}]}
